# Laboratory results from article PMC9909651 (Acta Pharmacologica Sinica, 2023).
# Entries after “also recorded” stand apart in the source; their conditions may differ.
# T1: Ebola virus VP30 110-272 protein (MBP tag removed) (Ebola virus (EBOV)), Q05323
# T1 chain: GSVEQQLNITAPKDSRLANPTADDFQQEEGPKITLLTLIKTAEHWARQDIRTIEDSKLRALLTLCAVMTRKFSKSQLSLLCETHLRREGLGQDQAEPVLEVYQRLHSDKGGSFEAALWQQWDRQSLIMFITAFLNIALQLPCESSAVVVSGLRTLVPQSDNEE
# B1: Ebola virus VP30 110-272 protein (MBP tag removed), Q05323 110-272 (domain or fragment)
# chain: T1 chain
# Assays:
# [1] = molecular target: VP30 protein (Zaire ebolavirus, UniProt Q05323); format: binding, Ebola virus
# [2] = system: EBOV minigenome in Huh7-4P cells; format: cell-based, Ebola virus
# [3] = system: EBOV minigenome in Huh7-4P cells; format: cell-based, Ebola virus; remark: listed apart in the source
# [4] = molecular target: VP30/NP interface (VP30_110–272 protein, NP-FITC peptide) (Zaire ebolavirus, UniProt Q05323); assay: biochemical; format: binding, Ebola virus
# [5] = molecular target: T2, VP30_110–272 protein (Zaire ebolavirus, UniProt Q05323); assay: biochemical; format: binding, Ebola virus
# [6] = molecular target: T2, VP30_110–272 protein; format: binding, Ebola virus
# [7] = molecular target: T1, Ebola virus VP30 110-272 protein (MBP …); assay: fluorescence polarisation
# [8] = molecular target: NP-FITC (NP-derived VP30-binding peptide labelled with FITC) (Ebola virus (EBOV)); assay: fluorescence polarisation
molecule,measurement,setting,value
Cc1cc(SCc2sc(-c3ccc(C(F)(F)F)c(F)c3)nc2C)ccc1OCC(=O)O [GW0742],"binding to VP30 already bound to Embelin or 8-gingerol, synergy SPR",[1],a reduction in binding was observed
same,"antiviral activity in MG assay, in words",[2],good antiviral activity
same,"synergistic effect, in words",[3],does not exhibit obvious synergistic effects
CCCCCCCCCCCC1=C(O)C(=O)C=C(O)C1=O [Embelin],IC50,"[4]; IC50, competitive FP assay",33.2 µM
same,Kd,[5],4.62 µM
same,"effect on stability / melting temperature (Tm) of VP30, TSA",[6],"can specifically bind to VP30 and change its melting temperature Tm; also recorded: increased the stability of VP30 at pH 6.5, 7.0, 7.5 and 8.0"
"O=C(O)c1cnc(O)nc1O [2,4-dihydroxypyrimidine-5-carboxylic acid]","competitive FP assay, result in words",[4],failed in the FP concentration gradient experiment
PTVAPPAPVYR (modifications not checked) [unlabeled NP peptide (NP-derived VP30-binding peptide)],IC50,[7],0.33 µM
B1,IC50,[8],3.07 µM
